The text below walks through data of the supplement of paper PMC4862054.

Molecules are shown by their SMILES.

What all share (assay): normalised response (% of control), CellTox Green; higher = less cell death (100 = DMSO, 0 = benzethonium chloride kill control)
Details in all cases: incubation time: 72 h

For one experiment, the system named is CAL-148. The essentials: (§1)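 Plates were normalised with 0.1 % DMSO as 100 and a positive kill control as 0. Breast cancer cell lines in 20 µl suspension had been seeded into 384-well plates with compound at 5 concentrations in 10-fold steps over a compound-specific 10,000-fold range, incubated 72 h, and read for CellTox Green fluorescence (485/520 nm) followed by CellTiter-Glo luminescence. Each value is the normalised signal at a single concentration.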

In a further experiment the test system is CAL-51. The essentials: as §1
In another experiment the test system is CAL-85-1. The essentials: as §1
The test system of a further experiment is DU-4475. An outline of the steps:
as §1

The next experiment concerns HCC1143. An outline of the steps:
as §1

The next experiment relates to HCC1599. The essentials: as §1
The next experiment has as its system Hs578T. An outline of the steps: as §1
Another experiment relates to MCF-10A. An outline of the steps: as §1
The next experiment relates to MDA-MB-436. The essentials: as §1
The next experiment concerns MDA-MB-453. The essentials: as §1
For the next experiment, the system named is MFM-223. An outline of the steps:
as §1

`COc1ncc(-c2ccc3nccc(-c4ccnnc4)c3c2)cc1NS(=O)(=O)c1ccc(F)cc1F` (100 nM): the normalised response in the experiment on CAL-148 stood at 67%; in the experiment with CAL-51 it was 70%; in the experiment with CAL-85-1, 99.1%; in the experiment with DU-4475 it was 99.6%; in the experiment with HCC1143 it was 110%; in the experiment on HCC1599, 106%. The normalised response in the experiment on Hs578T stood at 85.2%; with MCF-10A it was 97.7%; in the experiment on MDA-MB-436, 93.5%; with MDA-MB-453, 95%; in the experiment on MFM-223, 76.5%.
For the molecule `O=c1[nH]c(=O)n([C@H]2C[C@H](O)[C@@H](CO)O2)cc1F` [Floxuridine] (10000 nM), the normalised response with CAL-148 turned out to be 106%; in the experiment with CAL-51 it was 53.1%; in the experiment on CAL-85-1, 26.5%; in the experiment on DU-4475, 103%; in the experiment on HCC1143, 103%; with HCC1599 it was 106%. Also, the normalised response in the experiment with Hs578T was 93.2%; with MCF-10A, 113%; in the experiment on MDA-MB-436, 99.9%; in the experiment on MDA-MB-453, 103%.
In the case of `O=c1[nH]c(=O)n([C@H]2C[C@H](O)[C@@H](CO)O2)cc1F` [Floxuridine] (1000 nM), the normalised response in the experiment on CAL-51 was 71%; in the experiment on CAL-85-1 it was 89.6%; with DU-4475, 106%; in the experiment on HCC1143, 122%; with HCC1599 it was 104%; with Hs578T, 98.3%. Further, the normalised response was found to be 116% in the experiment on MCF-10A, 108% in the experiment on MDA-MB-436, 110% with MDA-MB-453 and 102% with MFM-223.
Regarding `Cn1cnc2c(F)c(Nc3ccc(Br)cc3F)c(C(=O)NOCCO)cc21` [MEK-162] (1000 nM), the normalised response in the experiment on CAL-51 came out at 89.1%; in the experiment with CAL-85-1 it was 79.3%; with DU-4475, 68.7%; in the experiment with HCC1143 it was 94.5%; in the experiment on HCC1599, 94.4%; with Hs578T it was 121%. Further, the normalised response with MCF-10A came to 106%; with MDA-MB-436, 79.9%; in the experiment with MDA-MB-453 it was 95.4%.
In the case of `COc1ccc(C2=N[C@@H](c3ccc(Cl)cc3)[C@@H](c3ccc(Cl)cc3)N2C(=O)N2CCNC(=O)C2)c(OC(C)C)c1` [Nutlin-3] (1000 nM), the normalised response with CAL-148 was 102%; with CAL-85-1 it was 108%; in the experiment on DU-4475, 100%; in the experiment with HCC1143, 94.2%; in the experiment on HCC1599, 99.6%; with Hs578T, 61.6%. For the same molecule, the normalised response with MCF-10A came to 84%; in the experiment on MDA-MB-436, 92.7%; in the experiment on MDA-MB-453 it was 109%; in the experiment on MFM-223, 100%.
As for `COC1=C2C[C@@H](C)C[C@H](OC)[C@H](O)[C@@H](C)/C=C(\C)[C@H](OC(N)=O)[C@@H](OC)/C=C\C=C(/C)C(=O)NC(=CC1=O)C2=O` [Geldanamycin] (1000 nM), the normalised response is 109% with CAL-51; 91% with CAL-85-1; 99.2% in the experiment on DU-4475; 102% with HCC1143; 92.2% with HCC1599; 91.1% in the experiment with Hs578T. The normalised response with MCF-10A was determined as 96.8%; in the experiment on MDA-MB-436 it was 92.2%; in the experiment with MDA-MB-453, 104%; in the experiment on MFM-223, 90.7%.
